Data on two compounds can be found in US9788552B2, “Use of a natural grape marc extract in order to stimulate the natural defenses of plants” (CENTRE NATIONAL DE LA RECHERCHE SCIENTIFIQUE—CNRS, priority 2010, dated 2017).

For the assay, the system named is tobacco leaf. Kind of assay: Tobacco leaf infiltration tests, macroscopic symptoms under white light. In kind it is in vivo. As to conditions: 50 μl, 8 days after infiltration. Here is the method:
Various tobacco leaf infiltration tests were carried out with 50 μl of solution as follows: Eight days after infiltration, macroscopic symptoms were observed under white light and under UV light (wavelength=312 nm). In the figures, the numbers correspond to the spot of infiltration of the test of the same number.

Molecules are shown by their SMILES.

Take `CC(N)CC(=O)O` (stereo not drawn) [BABA, β-aminobutyric acid]: the “chlorosis or necrosis at the infiltrated sites” value (10 mM, white light (Test 6)) is “do not induce chlorosis or necrosis”.

For `O=C(O)c1ccccc1O` [Salicylic acid, salicylic acid], the “necrosis in infiltrated foliar tissues” value (2 mM, white light (Test 7, positive control)) is recorded as “causes necrosis”.
